Source: patent US20150105252A1, “SUBSTITUTED PYRAZOLES AS HERBICIDES” (E I DU PONT DE NEMOURS AND COMPANY, priority 2013, published 2015)

Assays:
[1] = test system: crabgrass, large; assay: Test C preemergence; format: in vivo, Digitaria sanguinalis; settings: preemergence; for Plant response rating, Crabgrass, Large: 125 g ai/ha, scale 0 to 100, 0 = no effect, 100 = complete control
In short: (§1)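 In this greenhouse assay, seeded soil (loam plus sand) or emerged seedlings in peat-vermiculite medium were treated with formulated compound. Roughly two weeks later (13–15 days), each species was scored visually relative to controls, from 0 for no effect to 100 for complete control.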

[2] = test system: pigweed; assay: Test C preemergence; format: in vivo, Amaranthus retroflexus; settings: preemergence; for Plant response rating, Pigweed: 125 g ai/ha, scale 0 to 100, 0 = no effect, 100 = complete control
In short: as §1

[3] = test system: velvetleaf; assay: Test C preemergence; format: in vivo, Abutilon theophrasti; settings: preemergence; for Plant response rating, Velvetleaf: 125 g ai/ha, scale 0 to 100, 0 = no effect, 100 = complete control
In short: as §1

[4] = test system: morningglory; assay: Test C postemergence; format: in vivo, Ipomoea coccinea; settings: for Plant response rating (scale of 0 to 100 where 0 is no effect and 100 is complete control), Morningglory: Postemergence, 31 g ai/ha, visually evaluated after 13 to 15 days; for Morningglory plant response rating / Plant response rating, Morningglory: postemergence; for Morningglory plant response rating: 62 g ai/ha, scale 0 to 100
Text: (§2) Seeds of plant species selected from blackgrass (Alopecurus myosuroides), ryegrass, Italian (Italian ryegrass, Lolium multiflorum), wheat (winter wheat, Triticum aestivum), galium (catchweed bedstraw, Galium aparine), corn (Zea mays), crabgrass, large (large crabgrass, Digitaria sanguinalis), foxtail, giant (giant foxtail, Setaria faberii), johnsongrass (Sorghum halepense), lambsquarters (Chenopodium album), morningglory (Ipomoea coccinea), nutsedge, yellow (yellow nutsedge, Cyperus esculentus), pigweed (redroot pigweed, Amaranthus retroflexus), ragweed (common ragweed, Ambrosia elation), soybean (Glycine max), barnyardgrass (Echinochloa crus-galli), oilseed rape (Brassica napus), waterhemp (common waterhemp, Amaranthus rudis), oat, wild (wild oat, Avena fatua), kochia (Kochia scoparia), Surinam grass (Brachiaria decumbens), foxtail, green (green foxtail, Setaria viridis), goosegrass (Eleusine indica), bromegrass, downy (downy bromegrass, Bromus tectorum), nightshade (eastern black nightshade, Solanum ptycanthum), cocklebur (common cocklebur, Xanthium strumarium), cupgrass, woolly (woolly cupgrass, Eriochloa villosa), bermudagrass (Cynodon dactylon), sunflower, (common oilseed sunflower, Helianthus annuus), Russian thistle (Salsola kali), and velvetleaf (Abutilon theophrasti) were planted into a blend of loam soil and sand and treated preemergence with test chemicals formulated in a non-phytotoxic solvent mixture which included a surfactant.
(§3) At the same time, plants selected from these crop and weed species and also chickweed (common chickweed, Stellaria media), canarygrass (littleseed canarygrass, Phalaris minor), and deadnettle (henbit deadnettle, Lamium amplexicaule), were planted in pots containing Redi-Earth® planting medium (Scotts Company, 14111 Scottslawn Road, Marysville, Ohio 43041) comprising spaghnum peat moss, vermiculite, wetting agent and starter nutrients and treated with postemergence applications of test chemicals formulated in the same manner. Plants ranged in height from 2 to 18 cm (1- to 4-leaf stage) for postemergence treatments. Treated plants and controls were maintained in a greenhouse for 13 to 15 days, after which time all species were compared to controls and visually evaluated. Plant response ratings, summarized in Table C, are based on a scale of 0 to 100 where 0 is no effect and 100 is complete control. A dash (-) response means no test result.

[5] = test system: nutsedge, yellow; assay: Test C postemergence; format: in vivo, Cyperus esculentus; settings: for Plant response rating (scale of 0 to 100 where 0 is no effect and 100 is complete control), Nutsedge, Yellow: Postemergence, 31 g ai/ha, visually evaluated after 13 to 15 days; for Nutsedge, Yellow plant response rating / Plant response rating, Nutsedge, Yellow: postemergence; for Nutsedge, Yellow plant response rating: 62 g ai/ha, scale 0 to 100
Text: as §2, §3

[6] = test system: wheat; assay: Test A postemergence; format: in vivo, Triticum aestivum; settings: Postemergence
In short: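 Pre- and postemergence greenhouse test; loam+sand; cpd in non-phytotox. solvent/surfactant; post at 1–2 leaf, 2–10 cm; visual score ~10 d, 0 = none, 100 = complete control.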

[7] = test system: oilseed rape; assay: Test C postemergence; format: in vivo, Brassica napus; settings: postemergence; for Oilseed Rape plant response rating: 62 g ai/ha, scale 0 to 100
In short: as §1

[8] = test system: foxtail, giant; assay: Test C preemergence; format: in vivo, Setaria faberii; settings: preemergence; for Plant response rating, Foxtail, Giant: 125 g ai/ha, scale 0 to 100, 0 = no effect, 100 = complete control
In short: as §1

[9] = test system: waterhemp; assay: Test C postemergence; format: in vivo, Amaranthus rudis; settings: postemergence, 250 g ai/ha; scale 0 to 100 (0 no effect, 100 complete control)
In short: as §1

[10] = test system: morningglory; assay: Test C preemergence; format: in vivo, Ipomoea coccinea; settings: preemergence; for Plant response rating, Morningglory: 125 g ai/ha, scale 0 to 100, 0 = no effect, 100 = complete control
In short: as §1

[11] = test system: barnyardgrass; assay: Test B flood; format: in vivo, Echinochloa crus-galli; settings: 250 g ai/ha, visual rating on 0 to 100 scale (0 no effect, 100 complete control), 13 to 15 days
In short: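 Visual ratings (0 = no effect, 100 = complete control) versus untreated controls were taken 13–15 days after treatment of greenhouse plants. Treatment was added to paddy water held at 3 cm depth on 2-leaf-stage seedlings.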

[12] = test system: waterhemp; assay: Test C preemergence; format: in vivo, Amaranthus rudis; settings: preemergence; for Plant response rating, Waterhemp: 125 g ai/ha, scale 0 to 100, 0 = no effect, 100 = complete control
In short: as §1

[13] = 31 g ai/ha, visual rating, scale 0 to 100 (0 no effect, 100 complete control), 13 to 15 days
[14] = 62 g ai/ha, scale 0 to 100 (0 no effect, 100 complete control), 13 to 15 days
[15] = 250 g ai/ha, scale 0 to 100, 0 is no effect, 100 is complete control
[16] = 250 g ai/ha, scale 0 to 100 (0 no effect, 100 complete control)
[17] = 125 g ai/ha, scale 0 to 100, 0 no effect, 100 complete control
[18] = 125 g ai/ha, 0 to 100 scale, 0 no effect, 100 complete control
[19] = 500 g ai/ha, 0 to 100 scale (0 no effect, 100 complete control)

Compound | Crabgrass, Large plant response rating [1, 13] | Crabgrass, Large plant response rating [1, 14] | Plant response rating, Crabgrass, Large ([1]; 13 to 15 days) | Crabgrass, Large plant response rating [1, 15] | Pigweed plant response rating [2, 13] | Pigweed plant response rating [2, 14] | Plant response rating, Pigweed ([2]; 13 to 15 days) | Pigweed plant response rating [2, 15] | Velvetleaf plant response rating [3, 13] | Velvetleaf plant response rating [3, 14] | Plant response rating, Velvetleaf ([3]; 13 to 15 days) | Velvetleaf plant response rating [3, 15] | Plant response rating (scale of 0 to 100 where 0 is no effect and 100 is complete control), Morningglory [4] | Morningglory plant response rating [4] | Plant response rating, Morningglory [4, 16] | Plant response rating, Morningglory [4, 17] | Plant response rating (scale of 0 to 100 where 0 is no effect and 100 is complete control), Nutsedge, Yellow [5] | Nutsedge, Yellow plant response rating [5] | Plant response rating, Nutsedge, Yellow [5, 16] | Plant response rating, Nutsedge, Yellow [5, 17] | other results
CCNC(=O)c1cc(CC)n(Cc2ccnc(C(F)(F)F)c2)n1 [Compound 196] | 98 | 98 | 100 | 100 | 98 | 98 | 100 | 100 | 40 | 100 | 100 | 100 | 40 | 80 | 75 | 55 | 5 | 0 | 10 | 5 | Wheat plant response rating [6, 18]: 40; Wheat plant response rating [6, 19]: 90; Oilseed Rape plant response rating [7]: 5; Plant response rating, Oilseed Rape [7, 16]: 70; Plant response rating, Oilseed Rape [7, 17]: 10; Foxtail, Giant plant response rating [8, 13]: 98; Foxtail, Giant plant response rating [8, 14]: 100; Plant response rating, Foxtail, Giant ([8]; 13 to 15 days): 100; Foxtail, Giant plant response rating [8, 15]: 100; Plant response rating, Waterhemp [9]: 70; Morningglory plant response rating [10, 13]: 98; Morningglory plant response rating [10, 14]: 98; Plant response rating, Morningglory ([10]; 13 to 15 days): 100; Morningglory plant response rating [10, 15]: 100; Plant response rating, Barnyardgrass [11]: 30; Waterhemp plant response rating [12, 13]: 100; Waterhemp plant response rating [12, 14]: 100; Plant response rating, Waterhemp ([12]; 13 to 15 days): 100; Waterhemp plant response rating [12, 15]: 100
Cc1cc(C(=O)NC(C)C)nn1Cc1ccnc(C(F)(F)F)c1 [Compound 197] | 100 | 100 | 100 | 100 | 100 | 100 | 100 | 100 | 25 | 90 | 65 | 100 | 75 | 75 | 98 | 65 | 0 | 5 | 5 | 10 | Wheat plant response rating [6, 18]: 0; Wheat plant response rating [6, 19]: 60; Oilseed Rape plant response rating [7]: 5; Plant response rating, Oilseed Rape [7, 16]: 10; Plant response rating, Oilseed Rape [7, 17]: 20; Foxtail, Giant plant response rating [8, 13]: 65; Foxtail, Giant plant response rating [8, 14]: 98; Plant response rating, Foxtail, Giant ([8]; 13 to 15 days): 100; Foxtail, Giant plant response rating [8, 15]: 100; Plant response rating, Waterhemp [9]: 55; Morningglory plant response rating [10, 13]: 75; Morningglory plant response rating [10, 14]: 100; Plant response rating, Morningglory ([10]; 13 to 15 days): 100; Morningglory plant response rating [10, 15]: 100; Plant response rating, Barnyardgrass [11]: 10; Waterhemp plant response rating [12, 13]: 100; Waterhemp plant response rating [12, 14]: 100; Plant response rating, Waterhemp ([12]; 13 to 15 days): 100; Waterhemp plant response rating [12, 15]: 100
CCCNC(=O)c1cc(CCC)n(Cc2cc(C(F)(F)F)nn2C)n1 [Compound 198] | 98 | 100 | 100 | 100 | 100 | 100 | 100 | 100 | 35 | 85 | 100 | 100 | 95 | 60 | 98 | 98 | 5 | 10 | 5 | 5 | Wheat plant response rating [6, 18]: 60; Wheat plant response rating [6, 19]: 90; Oilseed Rape plant response rating [7]: 50; Plant response rating, Oilseed Rape [7, 16]: 60; Plant response rating, Oilseed Rape [7, 17]: 70; Foxtail, Giant plant response rating [8, 13]: 98; Foxtail, Giant plant response rating [8, 14]: 100; Plant response rating, Foxtail, Giant ([8]; 13 to 15 days): 100; Foxtail, Giant plant response rating [8, 15]: 100; Plant response rating, Waterhemp [9]: 90; Morningglory plant response rating [10, 13]: 95; Morningglory plant response rating [10, 14]: 100; Plant response rating, Morningglory ([10]; 13 to 15 days): 100; Morningglory plant response rating [10, 15]: 100; Plant response rating, Barnyardgrass [11]: 60; Waterhemp plant response rating [12, 13]: 98; Waterhemp plant response rating [12, 14]: 98; Plant response rating, Waterhemp ([12]; 13 to 15 days): 100; Waterhemp plant response rating [12, 15]: 100
